These results are taken from patent US7186738B2, “Antibacterial oxalidinones” (AstraZeneca AB, priority 2003, dated 2007).

The structures appear in SMILES notation. In brackets after ≈: the same amount, converted by molar mass.

Experiment [1] relates to Staphylococcus aureus MRQR (methicillin resistant and quinolone resistant). Nature of the experiment: MIC by agar dilution, standard in-vitro test system. Format: cell-based. The note with it: inoculum 10^4 CFU/spot, 37° C., 24 hours. On the procedure:
(§1) The following results were obtained on a standard in-vitro test system. The activity is described in terms of the minimum inhibitory concentration (MIC) determined by the agar-dilution technique with an inoculum size of 10^4 CFU/spot. Typically, compounds are active in the range 0.01 to 256 μg/ml.
(§2) Staphylococci were tested on agar, using an inoculum of 10^4 CFU/spot and an incubation temperature of 37° C. for 24 hours—standard test conditions for the expression of methicillin resistance.

Experiment [2] has as its system Staphylococcus aureus MSQS (methicillin sensitive and quinolone sensitive). The experiment is described as above. Type of experiment: cell-based. As to conditions: inoculum 10^4 CFU/spot, 37° C., 24 hours. The method, then: as §1, §2
For the next experiment, the system named is Moraxella catarrhalis. Described as above. Format: cell-based. As to conditions: inoculum 10^4 CFU/spot. The method, then:
as §1

A further experiment concerns Streptococcus pneumoniae. The description is as above. Type of experiment: cell-based. The note with it: agar with 5% defibrinated horse blood, 10^4 CFU/spot, 37° C., 5% carbon dioxide, 48 hours. The method, then:
(§3) The following results were obtained on a standard in-vitro test system. The activity is described in terms of the minimum inhibitory concentration (MIC) determined by the agar-dilution technique with an inoculum size of 10^4 CFU/spot. Typically, compounds are active in the range 0.01 to 256 μg/ml. Streptococci and enterococci were tested on agar supplemented with 5% defibrinated horse blood, an inoculum of 10^4 CFU/spot and an incubation temperature of 37° C. in an atmosphere of 5% carbon dioxide for 48 hours—blood is required for the growth of some of the test organisms.

In another experiment the test system is Enterococcus faecium. Described as above. Format: cell-based. The note with it: agar with 5% defibrinated horse blood, 10^4 CFU/spot, 37° C., 5% carbon dioxide, 48 hours. The method, then: as §3
The target of the next experiment is T1, MAO-A (Homo sapiens, UniProt P21397).
T1 construct: made in house; host or cells: yeast
T1 sequence (P21397 1-527): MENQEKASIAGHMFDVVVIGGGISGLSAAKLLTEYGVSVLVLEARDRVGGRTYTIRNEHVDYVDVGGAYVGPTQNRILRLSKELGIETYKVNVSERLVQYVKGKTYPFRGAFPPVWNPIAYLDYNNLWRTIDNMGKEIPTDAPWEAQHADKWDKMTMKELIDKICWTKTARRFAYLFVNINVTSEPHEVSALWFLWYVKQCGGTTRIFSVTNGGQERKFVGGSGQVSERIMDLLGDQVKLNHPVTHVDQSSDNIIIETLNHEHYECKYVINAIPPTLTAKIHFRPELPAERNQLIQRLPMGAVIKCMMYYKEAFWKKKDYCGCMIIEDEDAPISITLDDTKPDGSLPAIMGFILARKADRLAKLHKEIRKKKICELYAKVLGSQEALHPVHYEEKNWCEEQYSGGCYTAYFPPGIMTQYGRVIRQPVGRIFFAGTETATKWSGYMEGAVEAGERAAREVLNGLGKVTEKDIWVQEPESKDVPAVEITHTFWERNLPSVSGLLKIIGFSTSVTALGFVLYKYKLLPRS
Nature of the experiment: MAO-A standard in-vitro assay, human liver enzyme expressed in yeast. Format: biochemical. As to conditions: read-out: Ki value against MAO-A (converted). The method, then: The activity of the compounds of the invention against MAO-A was tested using a standard in-vitro assay based on human liver enzyme expressed in yeast as described in Biochem. Biophys. Res. Commun. 1991, 181, 1084–1088.

For the compound `Cc1cc(-c2ccc(N3C[C@H](Cn4ccnn4)OC3=O)cc2F)on1` [Example 1, (5R)-3-[3-Fluoro-4-(3-methylisoxazol-5-yl)phenyl]-5-(1H-1,2,3-triazol-1-ylmethyl)-1,3-oxazolidin-2-one], the minimal inhibitory concentration (MIC) in experiment [1] is 1 µg/mL (≈ 2.91 µM); in experiment [2], 0.5 µg/mL (≈ 1.46 µM); against Moraxella catarrhalis, 1 µg/mL (≈ 2.91 µM); with Streptococcus pneumoniae, 0.25 µg/mL (≈ 0.728 µM); with Enterococcus faecium it was 0.5 µg/mL (≈ 1.46 µM). Regarding `CCOC(=O)c1cc(-c2ccc(N3C[C@H](Cn4ccnn4)OC3=O)cc2F)on1` [Example 2, Ethyl 5-{2-fluoro-4-[(5R)-2-oxo-5-(1H-1,2,3-triazol-1-ylmethyl)-1,3-oxazolidin-3-yl]phenyl}isoxazole-3-carboxylate], the inhibition constant Ki on MAO-A is 47.3 µM. Take `O=C1O[C@@H](Cn2ccnn2)CN1c1ccc(-c2c[nH]nn2)c(F)c1` [Example 7, (5R)-3-[3-Fluoro-4-(1H-1,2,3-triazol-4-yl)phenyl]-5-(1H-1,2,3-triazol-1-ylmethyl)-1,3-oxazolidin-2-one]: the inhibitory constant (Ki) on MAO-A is 437 µM. Turning to `CCOC(=O)c1cc(-c2ccc(N3C[C@H](CNC(C)=O)OC3=O)cc2F)on1` [acetamide analogue of Example 2, reference compound], the Ki at MAO-A was 15.3 µM. On to `CC(=O)NC[C@H]1CN(c2ccc(-c3c[nH]nn3)c(F)c2)C(=O)O1` [acetamide analogue of Example 7, reference compound], for which the Ki on MAO-A is 106 µM.
